Measured values from patent US8906865B2, “Treatment of inflammation and/or endotoxic shock” (ISIS Innovation Limited, priority 2007, dated 2014).
Non-standard residues stand in square brackets, D forms with d. Residues, ends and D or L forms follow the SMILES beside them. *: point of attachment. Sta = CC(C)C[C@H](N)[C@@H](O)CC(=O)O; Isovaleryl = CC(C)CC(=O)*; Cbz = O=C(OCc1ccccc1)*; CH2F = FC*

Assays:
[1] = quoted in the discussion; cited from earlier work
[2] = test system: Murine peritoneal macrophages (PMΦ); experiment: Macrophage activation assay: LPS/IFNγ-induced inflammatory cytokine expression (ELISA, Luminex); format: cell-based, mouse; conditions: for Effect of protease inhibitor on chemerin-mediated suppression of MΦ activation (FIG. 1F): chemerin 1 pM + protease inhibitor 1 h, then LPS/IFNγ 15 h; for Percentage inhibition of LPS/IFNγ-induced inflammatory cytokine expression: RANTES / Percentage inhibition of LPS/IFNγ-induced inflammatory cytokine expression: TNFα: PMΦ, pre-treatment 1 h (0.1 pM-100 nM), then LPS 100 ng/ml + IFNγ 20 ng/ml 15 h, optimal dose (1 pM Chemerin and C15, 100 pM C13 and C19); for Optimal dose (maximal response) for suppression of LPS/IFNγ-induced cytokine expression: macrophage activation assay; for Anti-inflammatory activity in the MΦ activation assay: peptides 0.1 pM-100 nM
Description: Murine peritoneal macrophages (PMθ, also referred to as PMΦ herein) were cultured under various conditions: Untreated; LPS (100 ng/ml) and IFNγ (20 ng/ml) for 15 h; Chemerin (1 pM) pre-treatment for 1 h then LPS/IFNγ for 15 h; Leupeptin (protease inhibitor; 15 mg/ml) and Chemerin (1 pM) for 1 h then LPS/IFNγ for 15 h; or Dexamethasone (positive control; 1 μM pre-treatment for 1 h then LPS/IFNγ for 15 h.
Murine PMθ were cultured under various conditions: Untreated, LPS (100 ng/ml) and IFNγ (20 ng/ml) for 15 h; Chemerin peptides (at a concentration of 1 pM-100 nM) pre-treatment for 1 h then LPS/IFNγ for 15 h. […] Experiments were performed with triplicate determinations for each treatment. Representative data from five independent experiments employing cells from different groups of C57B16/J mice are shown. p<0.01 **; p<0.001 *** relative to LPS/IFNγ treated samples.
With reference to Table 1, anti-inflammatory activity of chemerin-derived peptides—Murine PMΦ were cultured as described for FIG. 1B and were challenged with LPS (100 ng/ml) and IFNγ (20 ng/ml) for 15 h with/without pre-treatment with peptides (0.1 pM-100 nM) for 1 h. […] Peptide sequences are: C11 (P144-A154; […]), C13 (P144-S156; […]), C15 (A140-A154; […]), C19 (A138-S156; […]; Seq ID: No. 37), N19 (E23-K41; […] Seq ID No: 44) and M20 (K86-K105; […] Seq ID No. 45). Control peptides: scrambled C15 (C15-S; […]) and mutant C15 (C15-M; […]; F148A & F153A). Data represent mean percentage inhibition of cytokine production by classically activated macrophages from 4-8 independent experiments as determined by ELISA and Luminex assay.
1 ml 2% BioGEL polyacrylamide beads in sterile Phosphate-Buffered Saline (PBS) were injected intraperitoneally (ip) into C57B1/6J mice. Four days after ip BioGEL administration, mice were sacrificed by the CO, method according to Home Office guidelines. Peritoneal cavities were flushed with 10 ml sterile PBS-2 mM EDTA to harvest BioGEL-evoked/elicited cellular infiltrate. Suspensions of harvested cells were centrifuged at 1000×g for 5 mins at 4° C. The supernatants were discarded and cell pellets were resuspended in 6 mls OptiMEM medium supplemented with 2 mM Glutamine, 50 units/ml Penicillin and 50 μg/ml Streptomycin. Macrophages were quantified following incubation on ice for 5-10 mins with Turk's solution using a haemocytometer. Cell suspensions (2 mls; 1.5×10^6/well) were plated in six-well tissue culture plates (35 mm diameter: Costar, UK) and allowed to adhere for 2 hours at 37° C. in a humidified atmosphere containing 5% CO2, to isolate macrophage populations by adherence. This gave greater than 95% purity assessed by cytospinning, staining of cells with Methylene Blue and Eosin and counting based on cellular morphology. Nonadherent cells (mainly granulocytes) were discarded and wells were washed three times with sterile PBS to remove loosely adherent or dead cells. […] To determine PTX sensitivity and dependency upon proteolysis, cells were pre-incubated with PTX (200 ng/ml) or Leupeptin (15 μg/ml). Additional cells were treated with peptides alone. Supernatants were harvested and stored at −20° C. until use in Enzyme-Linked Immunosorbance Assays (ELISAs) and Luminex assays. Cells were lysed to allow extraction of total RNA by the TRIZOL method. Lysates were stored at −80° C. until RNA extraction following manufacturer's guidelines (Qiagen, RNeasy Mini Prep Kit).
RANTES, Tumour necrosis factor (TNFα) and CCL9 concentrations in cell supernatants were assessed by ELISA. IL-12 p40, IL-10, IL-1β, TNFα, MCP-1 (Monocyte chemoattractant protein-1) and IL-6 levels were determined by Luminex multiplex bead assay (Bio-rad 6 plex assay). Lower limits of detection for ELISAs were 0.1-0.5 ng/ml and 10-50 pg/ml for Luminex assays.

[3] = test system: PMΦ (peritoneal macrophages); experiment: Macrophage chemotaxis assay (modified Boyden chamber); format: cell-based, mouse; conditions: for Macrophage chemotactic activity: migration over 4 h, compared with C140 and RANTES 25 ng/ml; for Concentration of maximal macrophage migration: tested 1 pM-100 nM
Description: PMθ (0.5×10^6) were allowed to migrate towards chemoattractant (Chemerin140 or Chemerin peptides) in the bottom well of a modified Boyden chamber over 4 h. Filters were fixed in 4% formalin, then migrated cell nuclei were stained with DAPI and visualised. Serum free media (SFM) were used as a negative control and the macrophage chemoattractant RANTES (25 ng/ml; 3 nM) as a positive control. The graphs indicate mean Migration Index (Chemoattractant % threshold area/SFM % threshold area)±SEM for each treatment group (n=5-6). p<0.001 ***; p<0.01 **; p<0.05 * relative to SFM treated wells.
PMθ were recruited following a 4 day peritoneal stimulation with BioGEL beads. Peritoneal cavities of male C57B16/J mice were lavaged with 5 ml PBS-2 mM EDTA. Cells were centrifuged and resuspended in RPMI supplemented with 0.5% BSA and 25 mM Hepes. Cells (0.5×10^6) were allowed to migrate towards chemoattractant (C140, C17m or C17m+C140) in the bottom well over 4 h. Filters were fixed in 4% formalin, then nuclei were stained with DAPI and visualised. Serum free media was used as a negative control (−/−). Cells were preincubated with Pertussis toxin (PTX) for 30 mins before the chemotaxis assay. The bar graphs in FIG. 11 show the mean Migration Index±SEM for each treatment group. Each bar represents at least triplicate wells and at least 3 pictures taken per treatment. p<0.001 ***; p<0.01 **; p<0.05 * relative to SFM treated wells unless otherwise stated.
Cell migration was assessed by use of transwell membranes (ChemoTX, 6-mm diameter, 8-μm pore size). Briefly, BioGEL-elicited cells were harvested and placed on transwell membranes (250 000 cells/membrane in RPMI supplemented with 25 mM Hepes and 0.1% bovine serum albumin. Cells were allowed to migrate toward Chemerin peptides (1 pM-100 nM) for 4 h. Signal transduction via G protein-coupled receptors was blocked by preincubating cells with pertussis toxin (PTX, 200 ng/ml, Sigma-Aldrich) for 30 mins before placing cells on transwell membranes. Migrated cells on the underside of membranes were fixed (3% formaldehyde) and stained with DAPI. Migration was quantified as total pixel count of DAPI stained nuclei under the confocal microscope (2 photos/membrane and a minimum of 3 replicate wells per treatment). Images were analyzed using Metamorph Offline software to determine percentage threshold areas (TA) occupied by migrated cells. Migration indices were obtained by dividing treatment TA by serum-free media TA. For secondary chemotaxis assays ChemoTx 3-mm diameter, 8-μm pore membranes were used with 50 000 cells/membrane.

[4] = C13m 100 pM, C15m 1 pM, C17m 1 pM, pre-treatment 1 h then LPS/IFNγ 15 h

Question: Which “Potency of comparison mediators” value [1] does the source give for `CCCCC/C=C\C[C@@H](O)/C=C/C=C/C=C\[C@@H](O)CCCC(=O)O` [LTB4, leukotriene B4] here?
Answer: Its value is 10^−11 M.

Question: For `CC(=O)N[C@@H](CC(C)C)C(=O)N[C@@H](CC(C)C)C(=O)N[C@H](C=O)CCCNC(=N)N` [Leupeptin, reference compound], which “Effect of protease inhibitor on chemerin-mediated suppression of MΦ activation (FIG. 1F)” value (“Effect of protease inhibitor” for short) [2] is on record?
Answer: Its value is “abolished its anti-inflammatory effects”.

Question: With `Cl.NCCc1ccc(S(=O)(=O)F)cc1` [Pefabloc, reference compound] as the molecule, how does the “Effect of protease inhibitor” value [2] read?
Answer: The value was “exerted no effect”.

Question: Which “Effect of protease inhibitor” value [2] does the source give for `CC(C)CC(=O)N[C@H](C(=O)N[C@H](C(=O)N[C@@H](CC(C)C)[C@@H](O)CC(=O)N[C@@H](C)C(=O)N[C@@H](CC(C)C)[C@@H](O)CC(=O)O)C(C)C)C(C)C` [Pepstatin A, reference compound] (Isovaleryl-VV[Sta]A[Sta]-OH) here?
Answer: Its value is “exerted no effect”.

Question: For `O=C(NC(Cc1ccccc1)C(=O)NC(Cc1ccccc1)C(=O)CF)OCc1ccccc1` (stereo not drawn) [Z-FF-FMK, reference compound] (Cbz-Phe-Phe-CH2F; configuration not given here), which “Effect of protease inhibitor” value [2] is on record?
Answer: The value was “independent of cathepsin L”.

Question: For `CC(C)C[C@H](NC(=O)[C@H](Cc1ccccc1)NC(=O)OCc1ccccc1)C(=O)C=O` [Z-FL-COCHO, reference compound], which “Effect of protease inhibitor” value [2] is on record?
Answer: The value was “dependent upon calpains and cathepsin S”.

Question: With `CCCC[C@@H](C=O)NC(=O)[C@H](CC(C)C)NC(=O)OCc1ccccc1` [calpeptin, reference compound] as the molecule, how does the “Effect of protease inhibitor” value [2] read?
Answer: The value was “dependent upon calpains”.

Question: Which “Potency of comparison mediators” value [1] does the source give for `CSCC[C@H](NC=O)C(=O)N[C@@H](CC(C)C)C(=O)N[C@@H](Cc1ccccc1)C(=O)O` [fMLP, formyl-Methionyl-Leucyl-Phenylalanine] here?
Answer: The value was 10^−11 M.

Question: Which results are given for “AQAGEDPHGYFLPGQFAFS (listed as Mus sp.) [C19]”?
Answer: Percentage inhibition of LPS/IFNγ-induced inflammatory cytokine expression: RANTES [2]: 41%; Percentage inhibition of LPS/IFNγ-induced inflammatory cytokine expression: TNFα [2]: 21%; Optimal dose (maximal response) for suppression of LPS/IFNγ-induced cytokine expression [2]: 100 pM; Macrophage chemotactic activity [3]: no chemotactic activity

Question: What does the source list for “ELSETQRRSLQVALEEFHK (listed as Mus sp.) [N19, N-terminal peptide E23-K41]”?
Answer: Percentage inhibition of LPS/IFNγ-induced inflammatory cytokine expression: RANTES [2]: 0%; Percentage inhibition of LPS/IFNγ-induced inflammatory cytokine expression: TNFα [2]: 0%; Anti-inflammatory activity in the MΦ activation assay [2]: devoid of anti-inflammatory activity

Question: What does the source list for “FSRALRTK (listed as Mus sp.) [C8, 8 aa peptide removed during prochemerin cleavage, reference compound]”?
Answer: Percentage inhibition of LPS/IFNγ-induced inflammatory cytokine expression: RANTES [2]: 0%; Percentage inhibition of LPS/IFNγ-induced inflammatory cytokine expression: TNFα [2]: 0%; Anti-inflammatory activity in the MΦ activation assay [2]: no detectable anti-inflammatory activity; Macrophage chemotactic activity [3]: incapable of inducing MΦ migration

Question: Which “Percentage inhibition of LPS/IFNγ-induced inflammatory cytokine expression: RANTES” value [2] does the source give for “KPECTIKPNGRRRKCLACIK (listed as Mus sp.) [M20, midstream peptide K86-K105]” here?
Answer: The value was 0%.

Question: What about the “Percentage inhibition of LPS/IFNγ-induced inflammatory cytokine expression: TNFα” value [2] of the same molecule?
Answer: Its value is 0%.

Question: What about the “Anti-inflammatory activity in the MΦ activation assay” value (from here on “Anti-inflammatory activity”) [2] of the same molecule?
Answer: Its value is “devoid of anti-inflammatory activity”.

Question: With PHGYFLPGQFA (listed as Mus sp.) [C11] as the molecule, how does the “Percentage inhibition of LPS/IFNγ-induced inflammatory cytokine expression: RANTES” value [2] read?
Answer: Its value is 0%.

Question: And the “Percentage inhibition of LPS/IFNγ-induced inflammatory cytokine expression: TNFα” value [2]?
Answer: The value was 0%.

Question: And the “Anti-inflammatory activity” value [2]?
Answer: Its value is “devoid of anti-inflammatory activity”.

Question: What about the Macrophage chemotactic activity [3] of the same molecule?
Answer: The Macrophage chemotactic activity was “little chemotactic activity”.

Question: What about the “Concentration of maximal macrophage migration” value [3] of the same molecule?
Answer: The value was 10 nM.

Question: What does the source list for PHGYFLPGQFAFS (listed as Mus sp.) [C13]?
Answer: Suppression of LPS/IFNγ-induced RANTES secretion (FIG. 2B) [2, 4]: 32%; Suppression of LPS/IFNγ-induced TNFα expression (FIG. 2B) [2, 4]: 10%; Percentage inhibition of LPS/IFNγ-induced inflammatory cytokine expression: RANTES [2]: 32%; Percentage inhibition of LPS/IFNγ-induced inflammatory cytokine expression: TNFα [2]: 10%; Optimal dose (maximal response) for suppression of LPS/IFNγ-induced cytokine expression [2]: 100 pM; Macrophage chemotactic activity [3]: little chemotactic activity; Concentration of maximal macrophage migration [3]: 10 nM

Question: For “RALRTK (listed as Mus sp.) [C6, 6 aa peptide removed during prochemerin cleavage, reference compound]”, which “Percentage inhibition of LPS/IFNγ-induced inflammatory cytokine expression: RANTES” value [2] is on record?
Answer: Its value is 0%.

Question: And the “Percentage inhibition of LPS/IFNγ-induced inflammatory cytokine expression: TNFα” value [2]?
Answer: Its value is 0%.

Question: And the “Anti-inflammatory activity” value [2]?
Answer: Its value is “no detectable anti-inflammatory activity”.

Question: And the Macrophage chemotactic activity [3]?
Answer: Its Macrophage chemotactic activity is “incapable of inducing MΦ migration”.

Question: Which “Potency of comparison mediators” value [1] does the source give for TNFα here?
Answer: The value was 10^−11 M.
